# Laboratory results published in PubChem BioAssay (NCI).
#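 Grown in 96-well plates, cells were treated for 48 hours with each compound at five concentrations. Insufficient inhibition: endpoint recorded as highest concentration tested. The concentration for 50% growth inhibition is given as GI50. TGI marks complete inhibition of growth.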
# Columns and labels:
# Assay in all cases: growth of human tumour cells (NCI), 48 h
# NCI-H226 lung = system: NCI-H226 lung
# NCI-H23 lung = system: NCI-H23 lung
# NCI-H460 lung = system: NCI-H460 lung
# NCI-H522 lung = system: NCI-H522 lung
# NCI/ADR-RES ovarian = system: NCI/ADR-RES ovarian
# OVCAR-3 ovarian = system: OVCAR-3 ovarian
# OVCAR-4 ovarian = system: OVCAR-4 ovarian
# OVCAR-5 ovarian = system: OVCAR-5 ovarian
# OVCAR-8 ovarian = system: OVCAR-8 ovarian
# PC-3 prostate = system: PC-3 prostate
# RPMI-8226 leukemia = system: RPMI-8226 leukemia
# RXF 393 renal = system: RXF 393 renal
# SF-268 CNS = system: SF-268 CNS
# SF-295 CNS = system: SF-295 CNS
# SF-539 CNS = system: SF-539 CNS
# SK-MEL-2 melanoma = system: SK-MEL-2 melanoma
# SK-MEL-28 melanoma = system: SK-MEL-28 melanoma
# SK-MEL-5 melanoma = system: SK-MEL-5 melanoma
# SK-OV-3 ovarian = system: SK-OV-3 ovarian
# SN12C renal = system: SN12C renal
# SNB-19 CNS = system: SNB-19 CNS
# SNB-75 CNS = system: SNB-75 CNS
# SW-620 colon = system: SW-620 colon
# T-47D breast = system: T-47D breast
# TK-10 renal = system: TK-10 renal
# U251 CNS = system: U251 CNS
# UACC-257 melanoma = system: UACC-257 melanoma
# UACC-62 melanoma = system: UACC-62 melanoma
# UO-31 renal = system: UO-31 renal
compound,measurement,setting,value
CC(=C(c1ccc(OCCCN(C)C)cc1)c1ccc(OCCCN(C)C)cc1)c1ccccc1,GI50,NCI-H226 lung,3890 nM
same,TGI,NCI-H226 lung,8050 nM
same,GI50,NCI-H23 lung,2480 nM
same,TGI,NCI-H23 lung,5300 nM
same,GI50,NCI-H460 lung,431 nM
same,TGI,NCI-H460 lung,1030 nM
same,GI50,NCI-H522 lung,354 nM
same,TGI,NCI-H522 lung,746 nM
same,GI50,NCI/ADR-RES ovarian,1770 nM
same,TGI,NCI/ADR-RES ovarian,4650 nM
same,GI50,OVCAR-3 ovarian,454 nM
same,TGI,OVCAR-3 ovarian,1280 nM
same,GI50,OVCAR-4 ovarian,571 nM
same,TGI,OVCAR-4 ovarian,1800 nM
same,GI50,OVCAR-5 ovarian,1160 nM
same,TGI,OVCAR-5 ovarian,4110 nM
same,GI50,OVCAR-8 ovarian,979 nM
same,TGI,OVCAR-8 ovarian,3760 nM
same,GI50,PC-3 prostate,818 nM
same,TGI,PC-3 prostate,3280 nM
same,GI50,RPMI-8226 leukemia,608 nM
same,TGI,RPMI-8226 leukemia,1820 nM
same,GI50,RXF 393 renal,339 nM
same,TGI,RXF 393 renal,874 nM
same,GI50,SF-268 CNS,609 nM
same,TGI,SF-268 CNS,3100 nM
same,GI50,SF-295 CNS,403 nM
same,TGI,SF-295 CNS,848 nM
same,GI50,SF-539 CNS,353 nM
same,TGI,SF-539 CNS,660 nM
same,GI50,SK-MEL-2 melanoma,3010 nM
same,TGI,SK-MEL-2 melanoma,6160 nM
same,GI50,SK-MEL-28 melanoma,376 nM
same,TGI,SK-MEL-28 melanoma,685 nM
same,GI50,SK-MEL-5 melanoma,363 nM
same,TGI,SK-MEL-5 melanoma,679 nM
same,GI50,SK-OV-3 ovarian,3510 nM
same,TGI,SK-OV-3 ovarian,6790 nM
same,GI50,SN12C renal,2440 nM
same,TGI,SN12C renal,5290 nM
same,GI50,SNB-19 CNS,835 nM
same,TGI,SNB-19 CNS,3240 nM
same,GI50,SNB-75 CNS,804 nM
same,TGI,SNB-75 CNS,4090 nM
same,GI50,SW-620 colon,339 nM
same,TGI,SW-620 colon,708 nM
same,GI50,T-47D breast,327 nM
same,TGI,T-47D breast,688 nM
same,GI50,TK-10 renal,714 nM
same,TGI,TK-10 renal,3560 nM
same,GI50,U251 CNS,461 nM
same,TGI,U251 CNS,1020 nM
same,GI50,UACC-257 melanoma,360 nM
same,TGI,UACC-257 melanoma,699 nM
same,GI50,UACC-62 melanoma,377 nM
same,TGI,UACC-62 melanoma,709 nM
same,GI50,UO-31 renal,360 nM
same,TGI,UO-31 renal,733 nM
